{"source": "patent US20190307818A1", "about": "“NOVEL ANTIMICROBIAL COMPOSITIONS AND METHODS OF USE” (priority 2016, published 2019)", "assay_type_in_all_cases": "cell-based, P. aeruginosa", "key": {"LasR [1]": {"target": "T1, LasR (Pseudomonas aeruginosa, UniProt P25084)", "T1 construct": "expressed in transfected cells; host or cells: E. coli TOP10 carrying pBAD-A 6xHIS-lasR and pCS26 plasB-luxCDABE", "T1 sequence (P25084 whole entry)": "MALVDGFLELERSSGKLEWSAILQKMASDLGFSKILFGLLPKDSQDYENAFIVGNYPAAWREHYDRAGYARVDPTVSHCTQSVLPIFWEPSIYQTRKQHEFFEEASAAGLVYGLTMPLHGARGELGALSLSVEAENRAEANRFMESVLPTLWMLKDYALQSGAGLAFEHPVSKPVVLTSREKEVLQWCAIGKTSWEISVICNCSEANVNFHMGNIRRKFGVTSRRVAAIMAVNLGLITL", "experiment": "Two plasmid E. coli LasR reporter (luciferase)", "conditions": "read-out: Percent Activity (LasR reporter)", "source_text": "(§1) A two plasmid E. coli reporter system was constructed, in which LasR or RhlR was expressed under an arabinose inducible promoter (e.g., LasR or RhlR was cloned into a pBAD-A vector and expressed upon addition of arabinose) in the presence of a LasR-dependent or RhlR-dependent promoter fused to luciferase (e.g., cloned into a pCS26 vector). Upon the addition of arabinose and in the presence of AI, LasR or RhlR were expressed, formed a complex with the cognate AI, underwent dimerization, and activated transcription of the reporter construct. All potential inhibitors were tested at 100 μM. The percent activity was reported relative to wild-type (100%).\n(§2) A sample experimental protocol for the RhlR reporter (see, e.g., Table 5A2) or for the LasR reporter (see, e.g., Table 5A1).\n(§3) A clean plate was filled with water, 70% ethanol, LB, and primed with cultured cells to ensure that initial dispensing led to the appropriate volume of cells being added to the wells. 20 μL of this solution was dispensed into appropriate wells in a 384-well plate that contained small molecule antagonists. 20 μL of this solution was dispensed into wells intended for a positive control that contain only DMSO. To the culture that was saved for negative control, arabinose was added to 0.1%. An equal volume of DMSO was added to the culture, relative to the amount of AI added to the other culture. 20 μL of culture was dispensed into wells intended for a negative control that contained only DMSO and no small molecule QS inhibitors. Plates were incubated at 30° C. in the plate shaker. Plates were read using a 384 LUM/OD 600 setting on the plate reader after 4 hours of induction.\nFor data analysis, the average and standard deviation for each of the control groups were determined. In a screen, for each data point, the number of standard deviations from the mean was determined to determine if the inhibitor was a “hit”. In a dose response curve, for each data point, the percent inhibition was determined: 1−(X/M), where X=single data point and M=is the mean of the AI only control group. The dose response curve was then plotted as a function of % inhibition (y) v. [inhibitor] on a log scale (x)."}, "RhlR": {"target": "T2, RhlR (Pseudomonas aeruginosa, UniProt P54292)", "T2 construct": "expressed in transfected cells; host or cells: E. coli TOP10 carrying pBAD-A 6xHIS-rhlR and pCS26 prhlA-luxCDABE", "T2 sequence (P54292 whole entry)": "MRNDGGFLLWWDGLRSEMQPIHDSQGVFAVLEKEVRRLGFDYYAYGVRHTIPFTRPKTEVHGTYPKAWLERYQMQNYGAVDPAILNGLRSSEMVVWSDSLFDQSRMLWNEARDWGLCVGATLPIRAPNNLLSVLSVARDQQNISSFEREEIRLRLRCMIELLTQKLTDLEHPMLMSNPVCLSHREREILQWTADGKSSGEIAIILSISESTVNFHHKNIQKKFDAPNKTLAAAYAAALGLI", "experiment": "Two plasmid E. coli RhlR reporter (luciferase)", "conditions": "read-out: Percent Activity (RhlR reporter)", "source_text": "as §1, §2\nFor the RhlR reporter, strains were re-streaked on LB+appropriate antibiotic before each experiment and grown overnight at 37° C. Three colonies were picked and a 3 mL overnight culture in LB+appropriate antibiotic was started. The culture was grown overnight at 37° C. The overnight culture was back-diluted 1:1000 into fresh LB+appropriate antibiotic in an appropriate volume, depending on the number of plates being screened. Each well in a 384 well plate received about 20 μL of culture. An additional 25 mL of culture was reserved for priming the plate filler. The culture was grown at 37° C. until OD600˜0.5, which took about 4 hrs. A 384-well plate was prepared. Stock concentrations of molecules (e.g., small molecule inhibitors) were 10 mM.\nFor a 10-point dose response for the RhlR reporter, a 1:3 dilution of molecule:DMSO (333 μL of stock molecule, 667 μL of DMSO using a 1 mL pipetteman) was used for accurate dispensing by the robot dispenser. Upon a prompt by the software, the appropriate concentration of each molecule was added. Each well was normalized with a DMSO standard to bring the total % volume of DMSO up to 1% using the robot. Plates were set aside with dispensed drugs until the cells were ready. Once the cells reached an OD600 of 0.5, an appropriate amount of cell culture was dispensed for screening into an Erlenmeyer flask. (Extra culture was saved for a negative control.) Arabinose was added to 0.1% final concentration (1:1000 dilution from stock solution), and AI was added to 10 μM (ED75) from a 10 mM stock. The components of the flask were mixed together by swirling. As mentioned previously, other concentrations of AIs may be suitable, e.g., the concentrations may be in the range of 2 uM to 100 uM, from 10 uM to 100 uM or from 2 uM to 10 uM. In some embodiments, 2 nM of 3-O—C12-HSL (for LasR) and 10 uM of C4-HSL (for RhlR) were used.\nas §3\nFor data analysis, the average and standard deviation for each of the control groups were determined. In a screen, for each data point, the number of standard deviations from the mean was determined to determine if the inhibitor was a “hit”. In a dose response curve, for each data point, the percent inhibition was determined: 1−(X/M), where X=single data point and M=is the mean of the AI only control group. […]"}, "LasR [2]": {"target": "T1, LasR", "experiment": "10-point autoinducer dose response on LasR reporter with QS inhibitor (competition)", "conditions": "inhibitor at 100 μM; increasing concentrations of AI", "protocol": "FIG. 4. QS inhibitors bind non-competitively to LasR. A 10-point dose response curve with increasing concentrations of autoinducer 3-O—C12-HSL (AI) was generated for a variety of QS small molecule inhibitors. In this figure, curve C12 (filled circle) corresponds to the absence of inhibitor. […] Instead, the inhibitors bind elsewhere on LasR to prevent LasR-dependent transcription.\nUsing known molecular biology techniques, assays were performed to determine whether binding of the small molecule QS inhibitors and the AIs occurred by a competitive or by another inhibitory mechanism (see, e.g., FIG. 4).\nThus, a 10-point dose response curve with concentrations of AI ranging from 10 pM to 5 nM was generated for a variety of QS small molecule inhibitors. Curve C12 (dotted filled line) corresponds to the absence of inhibitor. […] Instead, the inhibitors bind elsewhere on LasR to prevent LasR-dependent transcription."}}, "data": [{"smiles": "O=c1cc(-c2ccccc2)oc2cc(O)c(O)c(O)c12", "note": "[Molecule 46, Baicalein]", "values": [{"measurement": "remaining activity at 100 µM", "setting": "LasR [1]", "value": 46.7, "unit": "%"}, {"measurement": "remaining activity at 100 µM", "setting": "RhlR", "value": 57.4, "unit": "%"}, {"measurement": "competition with autoinducer 3-O—C12-HSL for LasR", "setting": "LasR [2]", "value": "did not compete"}]}]}
